Measured values taken from patent US20110021565A1, “PIPERIDINE DERIVATIVES AS NK3 ANTAGONISTS” (priority 2007, published 2011).

Molecular target: T1, recombinant human NK3 receptor (Homo sapiens, UniProt P29371)
T1 construct: expressed in transfected cells; host or cells: HEK293 cells, transient expression; membrane preparation
T1 sequence (P29371 1-465): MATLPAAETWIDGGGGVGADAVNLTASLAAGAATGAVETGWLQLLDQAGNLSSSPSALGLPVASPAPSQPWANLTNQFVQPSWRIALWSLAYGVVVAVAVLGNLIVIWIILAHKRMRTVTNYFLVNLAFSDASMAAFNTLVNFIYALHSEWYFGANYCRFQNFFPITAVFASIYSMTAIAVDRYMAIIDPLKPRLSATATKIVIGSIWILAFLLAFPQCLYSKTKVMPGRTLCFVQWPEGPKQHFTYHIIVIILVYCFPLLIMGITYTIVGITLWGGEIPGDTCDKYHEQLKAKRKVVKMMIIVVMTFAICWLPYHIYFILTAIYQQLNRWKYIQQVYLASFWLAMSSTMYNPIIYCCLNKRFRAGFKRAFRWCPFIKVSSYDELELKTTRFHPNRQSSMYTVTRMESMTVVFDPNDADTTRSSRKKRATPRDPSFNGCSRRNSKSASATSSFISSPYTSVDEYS
Assay: [3H]SR142801 competition binding assay
Conditions: [3H]SR142801, membranes of HEK293 cells transiently expressing recombinant human NK3 receptor; read-out: hNK3 Ki
Protocol: [^3H]SR142801 Competition Binding Assay
hNK3 receptor binding experiment were performed using [^3H]SR142801 (Catalog No. TRK1035, specific activity: 74.0 Ci/mmol, Amersham, GE Healthcare UK limited, Buckinghamshire, UK) and membrane isolated from HEK293 cells transiently expressing recombinant human NK3 receptor. After thawing, the membrane homogenates were centrifuged at 48,000×g for 10 min at 4° C., the pellets were resuspended in the 50 mM Tris-HCl, 4 mM MnCl2, 1 μM phosphoramidon, 0.1% BSA binding buffer at pH 7.4 to a final assay concentration of 5 μg protein/well. For inhibition experiments, membranes were incubated with [^3H]SR142801 at a concentration equal to KD value of radioligand and 10 concentrations of the inhibitory compound (0.0003-10 μM) (in a total reaction volume of 500 μl) for 75 min at room temperature (RT). At the end of the incubation, membranes were filtered onto unitfilter (96-well white microplate with bonded GF/C filter preincubated 1 h in 0.3% PEI+0.3% BSA, Packard BioScience, Meriden, Conn.) with a Filtermate 196 harvester (Packard BioScience) and washed 4 times with ice-cold 50 mM Tris-HCl, pH 7.4 buffer. Nonspecific binding was measured in the presence of 10 μM SB222200 for both radioligands. The radioactivity on the filter was counted (5 min) on a Packard Top-count microplate scintillation counter with quenching correction after addition of 45 μl of microscint 40 (Canberra Packard S. A., Zurich, Switzerland) and shaking for 1 h. Inhibition curves were fitted according to the Hill equation: y=100/(1+(x/IC50)^nH), where nH=slope factor using Excel-fit 4 software ([…]). IC50 values were derived from the inhibition curve and the affinity constant (IQ values were calculated using the Cheng-Prussoff equation Ki=IC50/(1+[L]/KD) where [L] is the concentration of radioligand and KD is its dissociation constant at the receptor, derived from the saturation isotherm. All experiments were performed in duplicate and the mean±standard error (SEM) of the individual Ki values was calculated.

Ki | SMILES
34.9 nM | CCN(C(C)=O)C1CCN(CCC(C)(C(=O)N[C@@H](CO)c2ccc(F)cc2)c2ccc(Cl)c(Cl)c2)CC1 (single isomer, unassigned; epimer 2) [Example 167]
382 nM | COCCN(C(C)=O)C1CCN(CCC(C)(C(=O)N[C@@H](CO)c2ccc(Cl)cc2)c2ccc(Cl)c(Cl)c2)CC1 (stereo in doubt) [Example 147, 4-{4-[Acetyl-(2-methoxy-ethyl)-amino]-piperidin-1-yl}-N-[1-(4-chloro-phenyl)-2-hydroxy-ethyl]-2-(3,4-dichloro-phenyl)-2-methyl-butyramide]
187 nM | COc1ccc(CN(C)C(=O)C(C)(CCN2CCC(NS(C)(=O)=O)CC2)c2ccc(Cl)c(Cl)c2)cc1F (stereo not shown) [Example 1, 2-(3,4-Dichloro-phenyl)-N-(3-fluoro-4-methoxy-benzyl)-4-(4-methanesulfonylamino-piperidin-1-yl)-2,N-dimethyl-butyramide]
703 nM | COc1ccc(C(NC(=O)C(C)(CCN2CCC(NS(C)(=O)=O)CC2)c2ccc(Cl)c(Cl)c2)C2CC2)cc1 (stereo not shown) [Example 2, N-[Cyclopropyl-(4-methoxy-phenyl)-methyl]-2-(3,4-dichloro-phenyl)-4-(4-methanesulfonyl-amino-piperidin-1-yl)-2-methyl-butyramide]
23.2 nM | CN(Cc1ccc(F)c(C(F)(F)F)c1)C(=O)C(C)(CCN1CCC(NS(C)(=O)=O)CC1)c1ccc(Cl)c(Cl)c1 (stereo not shown) [Example 3, 2-(3,4-Dichloro-phenyl)-N-(4-fluoro-3-trifluoromethyl-benzyl)-4-(4-methanesulfonyl-amino-piperidin-1-yl)-2,N-dimethyl-butyramide]
140 nM | CC(CCN1CCC(NS(C)(=O)=O)CC1)(C(=O)NCc1cc(C(F)(F)F)cc(C(F)(F)F)c1)c1ccc(Cl)c(Cl)c1 (stereo not shown) [Example 4, N-(3,5-Bis-trifluoromethyl-benzyl)-2-(3,4-dichloro-phenyl)-4-(4-methanesulfonyl-amino-piperidin-1-yl)-2-methyl-butyramide]
272 nM | COc1cc(CN(C)C(=O)C(C)(CCN2CCC(NS(C)(=O)=O)CC2)c2ccc(Cl)c(Cl)c2)ccc1OC(F)F (stereo not shown) [Example 5, 2-(3,4-Dichloro-phenyl)-N-(4-difluoromethoxy-3-methoxy-benzyl)-4-(4-methanesulfonyl-amino-piperidin-1-yl)-2,N-dimethyl-butyramide]
77.4 nM | Cc1ccc(CN(C)C(=O)C(C)(CCN2CCC(NS(C)(=O)=O)CC2)c2ccc(Cl)c(Cl)c2)cc1 (stereo not shown) [Example 6, 2-(3,4-Dichloro-phenyl)-4-(4-methanesulfonyl-amino-piperidin-1-yl)-2,N-dimethyl-N-(4-methyl-benzyl)-butyramide]
621 nM | CN(C)c1ccc(CNC(=O)C(C)(CCN2CCC(NS(C)(=O)=O)CC2)c2ccc(Cl)c(Cl)c2)cc1 (stereo not shown) [Example 7, 2-(3,4-Dichloro-phenyl)-N-(4-dimethylamino-benzyl)-4-(4-methanesulfonyl-amino-piperidin-1-yl)-2-methyl-butyramide]
22.6 nM | CN(Cc1ccc(Cl)c(C(F)(F)F)c1)C(=O)C(C)(CCN1CCC(NS(C)(=O)=O)CC1)c1ccc(Cl)c(Cl)c1 (stereo not shown) [Example 8, N-(4-Chloro-3-trifluoromethyl-benzyl)-2-(3,4-dichloro-phenyl)-4-(4-methanesulfonyl-amino-piperidin-1-yl)-2,N-dimethyl-butyramide]
30 nM | CN(Cc1ccc(C(F)(F)F)c(F)c1)C(=O)C(C)(CCN1CCC(NS(C)(=O)=O)CC1)c1ccc(Cl)c(Cl)c1 (stereo not shown) [Example 9, 2-(3,4-Dichloro-phenyl)-N-(3-fluoro-4-trifluoromethyl-benzyl)-4-(4-methanesulfonyl-amino-piperidin-1-yl)-2,N-dimethyl-butyramide]
24 nM | CN(Cc1ccc(Cl)c(Cl)c1)C(=O)C(C)(CCN1CCC(NS(C)(=O)=O)CC1)c1ccc(Cl)c(Cl)c1 (stereo not shown) [Example 10, N-(3,4-Dichloro-benzyl)-2-(3,4-dichloro-phenyl)-4-(4-methanesulfonyl-amino-piperidin-1-yl)-2,N-dimethyl-butyramide]
44.2 nM | CC(CCN1CCC(NS(C)(=O)=O)CC1)(C(=O)NCc1ccc(Cl)c(Cl)c1)c1ccc(Cl)c(Cl)c1 (stereo not shown) [Example 11, N-(3,4-Dichloro-benzyl)-2-(3,4-dichloro-phenyl)-4-(4-methanesulfonyl-amino-piperidin-1-yl)-2-methyl-butyramide]
309 nM | CC(CCN1CCC(NS(C)(=O)=O)CC1)(C(=O)NCc1cccc(OC(F)F)c1)c1ccc(Cl)c(Cl)c1 (stereo not shown) [Example 12, 2-(3,4-Dichloro-phenyl)-N-(3-difluoromethoxy-benzyl)-4-(4-methanesulfonyl-amino-piperidin-1-yl)-2-methyl-butyramide]
580 nM | CC(CCN1CCC(NS(C)(=O)=O)CC1)(C(=O)NCc1cc(F)ccc1C(F)(F)F)c1ccc(Cl)c(Cl)c1 (stereo not shown) [Example 13, 2-(3,4-Dichloro-phenyl)-N-(5-fluoro-2-trifluoromethyl-benzyl)-4-(4-methanesulfonyl-amino-piperidin-1-yl)-2-methyl-butyramide]
58 nM | CC(CCN1CCC(NS(C)(=O)=O)CC1)(C(=O)NCc1ccc(C(F)(F)F)cc1)c1ccc(Cl)c(Cl)c1 (stereo not shown) [Example 14, 2-(3,4-Dichloro-phenyl)-4-(4-methanesulfonyl-amino-piperidin-1-yl)-2-methyl-N-(4-trifluoromethyl-benzyl)-butyramide]
166 nM | CC(CCN1CCC(NS(C)(=O)=O)CC1)(C(=O)NCc1cc(C(F)(F)F)ccc1F)c1ccc(Cl)c(Cl)c1 (stereo not shown) [Example 15, 2-(3,4-Dichloro-phenyl)-N-(2-fluoro-5-trifluoromethyl-benzyl)-4-(4-methanesulfonyl-amino-piperidin-1-yl)-2-methyl-butyramide]
173 nM | CC(NC(=O)C(C)(CCN1CCC(NS(C)(=O)=O)CC1)c1ccc(Cl)c(Cl)c1)c1ccc(Cl)cc1 (stereo not shown) [Example 16, N-[1-(4-Chloro-phenyl)-ethyl]-2-(3,4-dichloro-phenyl)-4-(4-methanesulfonyl-amino-piperidin-1-yl)-2-methyl-butyramide]
213 nM | COc1cccc(CN(C)C(=O)C(C)(CCN2CCC(NS(C)(=O)=O)CC2)c2ccc(Cl)c(Cl)c2)c1 (stereo not shown) [Example 17, 2-(3,4-Dichloro-phenyl)-4-(4-methanesulfonyl-amino-piperidin-1-yl)-N-(3-methoxy-benzyl)-2,N-dimethyl-butyramide]
33.3 nM | CN(Cc1ccccc1Cl)C(=O)C(C)(CCN1CCC(NS(C)(=O)=O)CC1)c1ccc(Cl)c(Cl)c1 (stereo not shown) [Example 18, N-(2-Chloro-benzyl)-2-(3,4-dichloro-phenyl)-4-(4-methanesulfonyl-amino-piperidin-1-yl)-2,N-dimethyl-butyramide]
59.9 nM | CC(NC(=O)C(C)(CCN1CCC(NS(C)(=O)=O)CC1)c1ccc(Cl)c(Cl)c1)c1ccc(Cl)c(Cl)c1 (stereo not shown) [Example 19, 2-(3,4-Dichloro-phenyl)-N-[1-(3,4-dichloro-phenyl)-ethyl]-4-(4-methanesulfonyl-amino-piperidin-1-yl)-2-methyl-butyramide]
203 nM | CN(Cc1ccc(-c2ccncc2)cc1)C(=O)C(C)(CCN1CCC(NS(C)(=O)=O)CC1)c1ccc(Cl)c(Cl)c1 (stereo not shown) [Example 20, 2-(3,4-Dichloro-phenyl)-4-(4-methanesulfonyl-amino-piperidin-1-yl)-2,N-dimethyl-N-(4-pyridin-4-yl-benzyl)-butyramide]
